Reference: PMC12797002, “Hydrophobic residues in the α‐synuclein NAC domain drive seed‐competent fibril formation and are targeted by peptide inhibitors” (The Febs Journal, 2025)

Columns and labels:
[1] = tested on: αSyn; conditions: cited from earlier work
Description: Building on our findings that the presence of residues 8–11 in NAC peptides, corresponding to αSyn 68–71, is necessary for efficient nucleation and aggregation, we investigated whether disrupting this hydrophobic region could inhibit full‐length αSyn aggregation. Truncating these residues abolished aggregation, and peptides containing them (e.g., NAC16, NAC11) aggregated rapidly (Fig. 1). To test whether targeting this site could suppress aggregation, we selected a previously validated inhibitor peptide based on the KISVRV sequence. This segment mimics the 70–75 region of αSyn, a hydrop ...

[2] = tested on: HEK293T αSyn (A53T) CFP/YFP biosensor cells; assay: Cell seeding assay (CFP/YFP inclusions, FRET flow cytometry); format: cell-based; conditions: 1 μM total or insoluble fraction, TurboFect
Description: HEK293T αSyn (A53T) CFP/YFP biosensor cells (HEK293T parental line, RRID:CVCL_0063) were kindly provided by Dr. Marc Diamond from the University of Texas Southwestern Medical Center (Dallas, TX, USA). The cells were not further authenticated but were routinely tested and confirmed to be mycoplasma‐free using PCR‐based assays. The cells were maintained in complete growth media consisting of 88% Dulbecco's modified Eagle's growth medium (Lonza, Walkersville, MD, USA, Cat. # 12‐604F), supplemented with 10% (v/v) fetal bovine serum (Thermo Fisher Scientific Inc., Cat. # A5256701), 10 mM HEPES (Serana Europe GmbH, Brandenburg, Germany; Cat # BSL‐001‐100ML), 1% (v/v) GlutaMAX™ Supplement (Thermo Fisher Scientific Inc., Cat. # 35050061), and 1% (v/v) Penicillin–Streptomycin Solution (Thermo Fisher Scientific Inc., Cat. # 15140130). Cells were maintained at 37 °C in a humidified incubator with 5% CO2/atmospheric air. […]
Cells were imaged using a high‐content imaging system (Cell Voyager 7000S; Yokogawa, Tokyo, Japan) with a 20× objective. CFP/YFP inclusions of αSyn (A53T) were detected using a 488 nm laser line (Ex = 460–490 nm, Em = 500–550 nm), while Hoechst‐33 342‐stained nuclei were detected using the 405 nm laser line (Ex = 360–400 nm, Em = 410–480 nm). […]

[3] = tested on: recombinant αSyn; assay: Effect of inhibitor peptides on αSyn aggregation (ThT, TEM, dot blot, Coomassie gel); format: biochemical, human
Description: For monitoring the effect of inhibitor peptides on αSyn aggregation, recombinant αSyn was incubated with PD, PL, PB, or scrambled peptides at a 1 : 2 molar ratio (100–150 μM αSyn:200–300 μM inhibitor) in the presence of 50 μM ThT. The incubation was performed at 37 °C with constant agitation at 850 rpm in a Turbo Thermo Shaker (TMS‐200; Allsheng, Hangzhou, China). The formation of amyloid fibrils was monitored by measuring ThT fluorescence over 72 h, as described previously.
To fractionate aggregated samples (recombinant αSyn or NAC peptides), 20% of the aggregation mixture was set aside as the ‘total fraction’. The remaining sample was centrifuged at room temperature at 65 000 g for 1 h. The supernatant was collected as the ‘soluble fraction’ and transferred to a fresh tube. The pellet was resuspended in 80 μL of 1× PBS (pH 7.2) and centrifuged at 65 000 g for 1 h. After removing the supernatant, the pellet was resuspended in 8 μL of 1× PBS (pH 7.2), yielding a 10× concentrated ‘insoluble fraction’.
Samples were dropped on glow‐discharged carbon‐coated copper grids and negatively stained with 2% uranyl acetate. Electron microscopy was performed on a Tecnai G2 F20 microscope (FEI Technologies, Hillsboro, OR, USA) with an Eagle 4K CCD camera (FEI Technologies) or a CM100 TWIN Transmission Electron Microscope (Philips, Amsterdam, Netherlands) equipped with a side‐mounted Veleta Camera (Olympus, Tokyo, Japan) and processed in the iTEM software suite (Olympus). After bringing the images to 2048 × 2048 pixels, the pixel size at the specimen level was 1.14 nm. Approximately 20 micrographs of each specimen were recorded and evaluated.
The samples were mixed with 2× Laemmli buffer [62.5 mM Tris/HCl (pH 6.8), 25% (w/v) glycerol, 2% SDS, and 0.01% Bromophenol Blue, supplemented with 5% (v/v) 2‐mercaptoethanol] and boiled at 95 °C for 5 min. The samples were then subjected to electrophoresis using Mini‐PROTEAN TGX 4–20% Precast gels (Bio‐Rad, Hercules, CA, USA, Cat. # 4561095) in Tris/glycine/SDS running buffer (Bio‐Rad). […]

[4] = Self-aggregation of inhibitor peptides alone (ThT, SEM); format: physicochemical; conditions: Fig. S8
Description: NAC peptides stored at −80 °C were thawed on ice and centrifuged at 12 100 g for 45 s. A reaction mixture (40 μL) was prepared on ice containing 100 μM NAC peptide, either alone or in combination with inhibitor peptides at a 1 : 2 molar ratio, along with 15 μM ThT (Sigma‐Aldrich, Burlington, MA, USA; Cat. # T3516‐5G) in 1× PBS (pH 7.2). This mixture was then dispensed into a clear‐bottom, black 384‐well plate (Revvity, Waltham, MA, USA), and the plate was sealed with a TopSealA‐PLUS (Revvity) to prevent evaporation.
The aggregation kinetics was monitored on an EnSpire Multimode Plate Reader (Revvity) at 37 °C with a constant agitation of 1000 rpm. To prevent condensation in the assay plate, the upper heater temperature in the plate reader was set to 2 °C higher than the lower heater temperature. ThT (Ex: 460–490 nm, Em: 500–550 nm) fluorescence readings were recorded every 5–10 min for 48–72 h. The aggregation lag time was determined by fitting a Boltzmann sigmoidal equation to the fluorescence data in OriginPro 2024 (OriginLab Corporation, Northampton, MA, USA).
NAC peptides aggregated in the absence or presence of inhibitor peptides, as described in the section Aggregation Kinetics, were collected and pooled into Eppendorf tubes. Approximately 2 μL of each sample was drop‐cast onto a silicon wafer and air‐dried at room temperature. […]

Question: Which results are given for KISVRV?
Answer: effect on preformed αSyn oligomers [1]: dissolve preformed oligomers; effect on αSyn fibril formation [1]: inhibit αSyn fibril formation

Question: Which results are given for KISVRVRRRRRR [PD]?
Answer: CFP/YFP inclusions in cells transduced with αSyn fibrils formed with inhibitor ([2]; αSyn : peptide 1 : 2 for 72 h, n = 3): reduced inclusions; inhibition of αSyn aggregation (ThT kinetics) ([3]; αSyn : peptide 1 : 2 molar ratio (100–150 μM : 200–300 μM), 50 μM ThT, 37 °C, 850 rpm, 72 h, n = 3): highly effective in inhibiting αSyn aggregation

Question: With KISVRVRRRRRR [PB] as the substance, how does the “reduction of seed competency of αSyn fibrils, ranking” value ([2]; 72 h, Fig. 5C,D) read?
Answer: most effective

Question: For VSRKIVRRRRR [PS], which “self-aggregation (ThT kinetics of peptide alone)” value [4] is on record?
Answer: no signs of self‐aggregation

Question: And the “final ThT reading normalized to control (amyloid fibrils formed)” value ([3]; αSyn : peptide 1 : 2, end of aggregation assay, n = 3 (PS n = 2))?
Answer: increase in αSyn aggregation

Question: What about the “αSyn fibrils by TEM” value ([3]; αSyn aggregated with peptide at 1 : 2) of the same substance?
Answer: fibril morphology was unaffected
